Test results published in ChEMBL document CHEMBL5465560, “Selectivity Literature for EUbOPEN Chemogenomic Library” (2024).
Values belong to the compound of their own block, whether it stands above or below them.

Assays:
[1] = biological target: Dual specificity mitogen-activated protein kinase kinase 2 (Homo sapiens) (UniProt P36507); experiment: Selectivity interaction (KinomeScan (DiscoverX)) EUB0000655a MAP2K2; conditions: at 10 µM
[2] = biological target: Cyclin-dependent kinase 7 (Homo sapiens, UniProt P50613); experiment: Selectivity interaction (KinomeScan (DiscoverX)) EUB0001619a CDK7; conditions: at 1 µM
Sequence of Cyclin-dependent kinase 7 (P50613 whole entry): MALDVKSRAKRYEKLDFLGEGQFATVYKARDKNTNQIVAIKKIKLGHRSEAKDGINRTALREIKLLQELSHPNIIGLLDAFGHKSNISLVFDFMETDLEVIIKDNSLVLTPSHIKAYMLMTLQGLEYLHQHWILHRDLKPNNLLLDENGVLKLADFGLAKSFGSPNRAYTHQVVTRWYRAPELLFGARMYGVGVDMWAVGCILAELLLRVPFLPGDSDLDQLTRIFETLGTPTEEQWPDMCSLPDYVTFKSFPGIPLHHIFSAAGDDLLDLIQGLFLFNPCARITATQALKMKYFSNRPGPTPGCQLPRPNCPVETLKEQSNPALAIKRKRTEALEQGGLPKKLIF

[3] = biological target: T1, Rhodopsin kinase GRK1 (Homo sapiens) (UniProt Q15835); experiment: Selectivity interaction (KinomeScan (DiscoverX)) EUB0000595a GRK1; conditions: at 10 µM
T1 sequence (whole entry): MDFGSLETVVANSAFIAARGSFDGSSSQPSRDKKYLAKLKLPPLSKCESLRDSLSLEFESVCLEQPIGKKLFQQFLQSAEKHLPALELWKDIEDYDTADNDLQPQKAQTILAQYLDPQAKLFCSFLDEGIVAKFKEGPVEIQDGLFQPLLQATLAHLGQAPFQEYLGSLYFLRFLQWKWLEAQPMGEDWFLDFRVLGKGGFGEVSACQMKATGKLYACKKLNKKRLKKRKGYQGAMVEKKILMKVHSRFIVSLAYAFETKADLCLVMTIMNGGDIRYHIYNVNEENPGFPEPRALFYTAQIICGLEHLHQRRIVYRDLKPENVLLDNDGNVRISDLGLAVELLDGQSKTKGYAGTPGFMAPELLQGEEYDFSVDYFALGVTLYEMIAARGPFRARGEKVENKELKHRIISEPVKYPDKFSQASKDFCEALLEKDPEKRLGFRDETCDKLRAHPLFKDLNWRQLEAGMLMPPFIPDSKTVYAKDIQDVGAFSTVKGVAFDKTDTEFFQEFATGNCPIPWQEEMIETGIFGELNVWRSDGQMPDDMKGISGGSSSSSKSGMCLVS

[4] = biological target: Ribosomal protein S6 kinase alpha-5 (Homo sapiens) (UniProt O75582); conditions: at 10 µM
Sequence of Ribosomal protein S6 kinase alpha-5 (Homo sapiens) (O75582 whole entry, looked up): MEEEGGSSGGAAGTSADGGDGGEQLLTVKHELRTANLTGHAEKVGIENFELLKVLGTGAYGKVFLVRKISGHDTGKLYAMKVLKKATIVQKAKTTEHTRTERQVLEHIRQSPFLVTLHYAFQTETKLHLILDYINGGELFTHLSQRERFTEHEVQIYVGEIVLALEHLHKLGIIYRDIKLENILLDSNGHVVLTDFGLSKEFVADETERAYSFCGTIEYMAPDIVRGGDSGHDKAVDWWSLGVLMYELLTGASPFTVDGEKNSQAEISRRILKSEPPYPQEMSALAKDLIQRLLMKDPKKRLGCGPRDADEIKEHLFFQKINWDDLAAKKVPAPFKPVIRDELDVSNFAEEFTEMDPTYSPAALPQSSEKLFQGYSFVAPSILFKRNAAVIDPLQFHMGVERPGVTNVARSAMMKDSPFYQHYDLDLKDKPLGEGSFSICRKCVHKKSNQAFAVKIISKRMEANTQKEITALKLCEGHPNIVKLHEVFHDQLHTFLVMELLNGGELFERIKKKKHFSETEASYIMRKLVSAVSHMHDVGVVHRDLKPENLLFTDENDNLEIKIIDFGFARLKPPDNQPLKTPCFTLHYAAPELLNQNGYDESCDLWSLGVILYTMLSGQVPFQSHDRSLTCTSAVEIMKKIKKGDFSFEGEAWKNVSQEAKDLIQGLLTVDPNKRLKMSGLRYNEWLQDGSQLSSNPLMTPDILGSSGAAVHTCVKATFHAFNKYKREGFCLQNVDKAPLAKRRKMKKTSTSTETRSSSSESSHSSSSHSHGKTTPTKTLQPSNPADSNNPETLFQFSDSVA

[5] = biological target: Mitogen-activated protein kinase 7 (Homo sapiens) (UniProt Q13164); experiment: Selectivity interaction (ProQinase) EUB0000171b MAPK7
Sequence of Mitogen-activated protein kinase 7 (Homo sapiens) (Q13164 2-816 limits assumed): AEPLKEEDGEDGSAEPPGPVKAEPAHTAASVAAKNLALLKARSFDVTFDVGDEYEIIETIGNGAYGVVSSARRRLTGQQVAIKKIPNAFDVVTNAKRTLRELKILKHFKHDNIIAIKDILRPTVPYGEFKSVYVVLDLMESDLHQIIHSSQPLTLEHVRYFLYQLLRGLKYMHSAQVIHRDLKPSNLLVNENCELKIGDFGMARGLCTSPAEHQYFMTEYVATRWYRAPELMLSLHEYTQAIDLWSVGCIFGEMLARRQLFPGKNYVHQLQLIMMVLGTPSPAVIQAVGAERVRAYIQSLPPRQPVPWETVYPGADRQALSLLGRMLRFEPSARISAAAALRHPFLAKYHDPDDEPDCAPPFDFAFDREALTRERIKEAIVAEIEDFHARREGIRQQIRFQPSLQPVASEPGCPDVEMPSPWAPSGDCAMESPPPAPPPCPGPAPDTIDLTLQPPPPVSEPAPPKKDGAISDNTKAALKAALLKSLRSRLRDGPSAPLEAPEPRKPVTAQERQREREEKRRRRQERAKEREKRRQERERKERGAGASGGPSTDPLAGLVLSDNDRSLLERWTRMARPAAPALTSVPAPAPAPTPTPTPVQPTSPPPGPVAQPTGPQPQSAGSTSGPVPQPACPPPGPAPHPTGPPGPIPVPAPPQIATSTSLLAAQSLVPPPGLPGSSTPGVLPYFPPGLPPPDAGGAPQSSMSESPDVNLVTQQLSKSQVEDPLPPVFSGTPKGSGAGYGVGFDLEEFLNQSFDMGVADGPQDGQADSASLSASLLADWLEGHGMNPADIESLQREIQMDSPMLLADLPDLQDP

[6] = biological target: T2, Serine/threonine-protein kinase LATS2 (Homo sapiens) (UniProt Q9NRM7); experiment: Selectivity interaction (KinomeScan (DiscoverX)) EUB0000695a LATS2; conditions: at 100 nM
T2 sequence (whole entry): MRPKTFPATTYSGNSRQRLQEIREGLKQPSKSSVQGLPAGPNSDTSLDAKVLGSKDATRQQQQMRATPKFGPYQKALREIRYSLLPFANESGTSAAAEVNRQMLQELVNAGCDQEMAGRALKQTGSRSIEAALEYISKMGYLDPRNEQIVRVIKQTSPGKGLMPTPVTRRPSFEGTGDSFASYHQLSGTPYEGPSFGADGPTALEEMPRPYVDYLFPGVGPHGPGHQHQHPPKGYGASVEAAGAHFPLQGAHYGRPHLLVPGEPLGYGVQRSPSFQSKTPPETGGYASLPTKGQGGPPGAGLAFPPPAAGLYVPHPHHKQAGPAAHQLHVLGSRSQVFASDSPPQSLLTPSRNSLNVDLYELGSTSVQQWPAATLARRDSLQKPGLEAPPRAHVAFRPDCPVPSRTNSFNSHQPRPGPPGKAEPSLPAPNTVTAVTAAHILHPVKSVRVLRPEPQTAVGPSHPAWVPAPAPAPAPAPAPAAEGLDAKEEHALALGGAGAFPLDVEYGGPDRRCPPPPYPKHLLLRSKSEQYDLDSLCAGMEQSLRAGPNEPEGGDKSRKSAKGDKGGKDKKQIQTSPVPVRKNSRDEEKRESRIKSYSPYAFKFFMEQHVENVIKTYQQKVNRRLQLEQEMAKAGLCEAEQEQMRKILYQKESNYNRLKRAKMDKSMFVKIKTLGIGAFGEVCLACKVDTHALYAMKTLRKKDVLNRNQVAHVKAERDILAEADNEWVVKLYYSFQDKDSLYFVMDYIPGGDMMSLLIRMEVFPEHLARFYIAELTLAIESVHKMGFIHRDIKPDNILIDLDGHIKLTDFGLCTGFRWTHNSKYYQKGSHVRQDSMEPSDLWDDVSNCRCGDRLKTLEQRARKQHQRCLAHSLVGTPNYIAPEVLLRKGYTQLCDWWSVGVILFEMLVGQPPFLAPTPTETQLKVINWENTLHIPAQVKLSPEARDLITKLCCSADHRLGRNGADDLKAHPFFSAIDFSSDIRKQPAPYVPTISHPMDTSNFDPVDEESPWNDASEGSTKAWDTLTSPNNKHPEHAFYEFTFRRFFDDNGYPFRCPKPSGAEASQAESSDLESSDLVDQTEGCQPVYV

Sequence of Dual specificity mitogen-activated protein kinase kinase 2 (Homo sapiens) (P36507 whole entry): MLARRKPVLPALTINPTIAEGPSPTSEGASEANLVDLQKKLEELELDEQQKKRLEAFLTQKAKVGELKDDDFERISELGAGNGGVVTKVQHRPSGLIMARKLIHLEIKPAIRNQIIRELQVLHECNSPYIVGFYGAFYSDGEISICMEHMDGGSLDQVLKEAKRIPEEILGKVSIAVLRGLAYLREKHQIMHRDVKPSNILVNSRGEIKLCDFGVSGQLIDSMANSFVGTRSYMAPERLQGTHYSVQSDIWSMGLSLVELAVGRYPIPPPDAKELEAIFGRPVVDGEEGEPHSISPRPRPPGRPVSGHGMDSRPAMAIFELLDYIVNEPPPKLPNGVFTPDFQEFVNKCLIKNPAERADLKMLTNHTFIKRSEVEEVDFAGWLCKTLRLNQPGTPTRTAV

SMILES: CN(C)CCOc1ccc(-c2nc(-c3ccncc3)c(-c3ccc4c(c3)CC/C4=N\O)[nH]2)cc1
% of control [1]: 91%

SMILES: N#Cc1cccc(-c2c[nH]c3ncnc(N4CCOCC4)c23)c1
% of control [2]: 81%

SMILES: COCC(=O)NC/C=C/c1ccc2ncnc(Nc3ccc(Oc4ccc(C)nc4)c(C)c3)c2c1 [CP-724714]
% of control [3]: 100% | % of control [4]: 99%

% of control ([5]; at 1 µM): 83% | % of control ([5]; at 5 µM): 73%
SMILES: C=CC(=O)Nc1cccc(C(=O)Nc2ccc(Nc3cc(-c4[nH]c(SC)nc4C)ccn3)cc2)c1

SMILES: Cc1cc(F)c(C(=O)Nc2cccc(-c3nncn3C(C)C)n2)cc1-n1cnc(C2CC2)c1
% of control [6]: 89%
